The source of these data is US9688699B2, “3-(pyrimidine-2-yl)imidazo[1,2-a]pyridines” (Bayer Pharma Aktiengesellschaft, priority 2014, dated 2017).

Structures can show the parent of a compound that is named as a salt.

Assay [1] deals with T1, recombinant guanylate cyclase reporter cell line (Rattus norvegicus, UniProt P19686+P20595).
T1 construct: expressed in transfected cells
T1 sequence (P19686 1-690): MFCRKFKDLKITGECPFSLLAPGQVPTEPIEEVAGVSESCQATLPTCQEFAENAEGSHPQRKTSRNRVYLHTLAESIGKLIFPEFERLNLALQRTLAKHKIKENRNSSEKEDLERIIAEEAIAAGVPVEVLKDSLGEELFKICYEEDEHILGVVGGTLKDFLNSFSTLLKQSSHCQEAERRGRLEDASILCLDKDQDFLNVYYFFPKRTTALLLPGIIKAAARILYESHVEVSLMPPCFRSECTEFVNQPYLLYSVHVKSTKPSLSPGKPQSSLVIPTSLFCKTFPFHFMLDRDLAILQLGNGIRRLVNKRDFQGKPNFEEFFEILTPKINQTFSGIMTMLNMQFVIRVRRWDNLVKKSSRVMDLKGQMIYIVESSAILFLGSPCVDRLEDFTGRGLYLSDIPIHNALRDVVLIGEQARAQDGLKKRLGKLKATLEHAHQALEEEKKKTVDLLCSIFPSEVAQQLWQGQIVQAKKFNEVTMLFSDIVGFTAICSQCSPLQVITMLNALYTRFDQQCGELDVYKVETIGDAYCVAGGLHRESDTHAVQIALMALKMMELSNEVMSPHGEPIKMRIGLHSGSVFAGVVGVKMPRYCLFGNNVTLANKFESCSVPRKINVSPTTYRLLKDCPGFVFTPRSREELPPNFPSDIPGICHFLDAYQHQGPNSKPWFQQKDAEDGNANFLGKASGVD
T1 sequence (P20595 1-619): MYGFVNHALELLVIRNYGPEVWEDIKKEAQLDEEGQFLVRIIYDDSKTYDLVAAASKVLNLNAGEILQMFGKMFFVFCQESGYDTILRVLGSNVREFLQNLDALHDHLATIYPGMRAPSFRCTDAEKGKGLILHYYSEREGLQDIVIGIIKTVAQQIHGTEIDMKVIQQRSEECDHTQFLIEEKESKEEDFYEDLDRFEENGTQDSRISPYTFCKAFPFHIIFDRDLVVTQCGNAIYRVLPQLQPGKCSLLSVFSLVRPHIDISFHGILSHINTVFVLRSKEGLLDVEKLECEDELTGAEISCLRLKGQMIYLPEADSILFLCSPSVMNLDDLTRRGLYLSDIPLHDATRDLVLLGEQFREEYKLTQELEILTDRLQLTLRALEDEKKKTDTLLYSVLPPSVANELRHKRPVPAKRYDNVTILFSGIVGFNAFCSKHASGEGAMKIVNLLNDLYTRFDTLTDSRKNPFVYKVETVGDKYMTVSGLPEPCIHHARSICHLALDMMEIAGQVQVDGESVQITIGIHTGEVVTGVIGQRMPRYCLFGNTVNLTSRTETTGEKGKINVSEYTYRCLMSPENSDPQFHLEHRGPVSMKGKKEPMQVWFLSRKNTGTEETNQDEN
Put plainly: Effect on a recombinant guanylate cyclase reporter cell line (B-2). The assay is classed as cell-based. The conditions noted are these: MEC = minimum effective concentration, in some cases mean values for individual determinations. In short, it runs like this: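 Cellular guanylate cyclase activity measured in a recombinant reporter cell line expressing rat soluble guanylate cyclase subunits. Values are minimum effective concentrations (MEC), some as means of individual determinations.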

Assay [2] concerns the target T2, human phosphodiesterase 5 (PDE 5) (Homo sapiens, UniProt O76074).
T2 construct: PDE 5 preparations are obtained from human platelets by disruption; from tissue; host or cells: human platelets (Mono Q ion exchange fractions with PDE 5 activity)
Put plainly: Inhibition of human phosphodiesterase 5 (PDE 5) (B-3). Conditions: PDE 5 preparation from human platelets; [8-3H] cGMP substrate, SPA; in some cases means of individual determinations. The class given is biochemical. Put shortly:
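Enzyme partially purified from human platelets by Mono Q ion exchange; [8-3H]cGMP substrate (0.025 μCi), Tris-HCl pH 7.5 with MgCl2/EDTA, <70% conversion, 60 min at room temperature. Compounds tested at 4 to 0.0018 μM final; yttrium SPA bead read-out, IC50 from concentration–% inhibition plot.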

Turning to `Cc1nc2c(OCc3c(F)cccc3F)cccn2c1-c1nc(CNC(=O)C2CC2)c2c(n1)NC(=O)C2(C)C` [Example 66, N-[(2-{8-[(2,6-Difluorobenzyl)oxy]-2-methylimidazo[1,2-a]pyridin-3-yl}-5,5-dimethyl-6-oxo-6,7-dihydro-5H-pyrrolo[2,3-d]pyrimidin-4-yl)methyl]cyclopropanecarboxamide], the MEC in assay [1] was 3 µM. Further, the IC50 – broadly, the concentration needed to halve the response being measured – in assay [2] was found to be 48 nM.

Consider `Cc1nc2c(OCc3c(F)cccc3F)cccn2c1-c1nc(NCCO)c2c(n1)NC(=O)C2(C)C` [Example 24, 2-{8-[(2,6-difluorobenzyl)oxy]-2-methylimidazo[1,2-a]pyridin-3-yl}-4-[(2-hydroxyethyl)amino]-5,5-dimethyl-5,7-dihydro-6H-pyrrolo[2,3-d]pyrimidin-6-one trifluoroacetate], for which, in assay [1], the MEC is 0.3 µM. Besides, the IC50 in assay [2] stood at 1.3 nM.

With `Cc1nc2c(OCc3c(F)cccc3F)cccn2c1-c1nc(I)c2c(n1)NC(=O)C2(C)C(F)(F)F` (racemic) [Example 7, rac-2-{8-[(2,6-Difluorobenzyl)oxy]-2-methylimidazo[1,2-a]pyridin-3-yl}-4-iodo-5-methyl-5-(trifluoromethyl)-5,7-dihydro-6H-pyrrolo[2,3-d]pyrimidin-6-one trifluoroacetate (racemate)], the MEC in assay [1] was found to be 2 µM. In addition, in assay [2], the half-inhibitory concentration (IC50) was found to be 590 nM.

On to `Cc1nc2c(OCc3c(F)cccc3F)cccn2c1-c1nc2c(c(C(=O)O)n1)C(C)(C)C(=O)N2` [Example 51, 2-{8-[(2,6-Difluorobenzyl)oxy]-2-methylimidazo[1,2-a]pyridin-3-yl}-5,5-dimethyl-6-oxo-6,7-dihydro-5H-pyrrolo[2,3-d]pyrimidine-4-carboxylic acid], for which the MEC in assay [1] was found to be 10 µM. This molecule returned an IC50 in assay [2] of 430 nM.

Consider `COc1ccc(CC(C)(N)CNc2nc(-c3c(C)nc4c(OCc5c(F)cccc5F)cccn34)nc3c2C(C)(C)C(=O)N3)cc1` (racemic) [Example 20, rac-4-{[2-amino-3-(4-methoxyphenyl)-2-methylpropyl]amino}-2-{8-[(2,6-difluorobenzyl)oxy]-2-methylimidazo[1,2-a]pyridin-3-yl}-5,5-dimethyl-5,7-dihydro-6H-pyrrolo[2,3-d]pyrimidin-6-one], for which, in assay [1], the MEC was 3 µM. The molecule also yielded an IC50 in assay [2] of 110 nM.

On to `COCC(C)(N)CNc1nc(-c2c(C)nc3c(OCc4c(F)cccc4F)cccn23)nc2c1C(C)(C)C(=O)N2` (racemic) [Example 21, rac-4-[(2-amino-3-methoxy-2-methylpropyl)amino]-2-{8-[(2,6-difluorobenzyl)oxy]-2-methylimidazo[1,2-a]pyridin-3-yl}-5,5-dimethyl-5,7-dihydro-6H-pyrrolo[2,3-d]pyrimidin-6-one], for which the MEC in assay [1] turned out to be 0.3 µM. Also, the midpoint of inhibition in assay [2], the IC50, lay at 22 nM.

For the molecule `Cc1nc2c(OCc3c(F)cccc3F)cccn2c1-c1nc2c(c(N3CCC[C@H]3CO)n1)C(C)(C)C(=O)N2` [Example 36, 2-{8-[(2,6-difluorobenzyl)oxy]-2-methylimidazo[1,2-a]pyridin-3-yl}-4-[(2S)-2-(hydroxymethyl)pyrrolidin-1-yl]-5,5-dimethyl-5,7-dihydro-6H-pyrrolo[2,3-d]pyrimidin-6-one], in assay [1], the MEC is 0.3 µM. Moreover, in assay [2], the midpoint of inhibition, the IC50, lay at 20 nM.

For `Cc1nc2c(OCc3c(F)cccc3F)cccn2c1-c1nc2c(c(Oc3cn[nH]c3)n1)C(C)(C)C(=O)N2` [Example 44, 2-{8-[(2,6-Difluorobenzyl)oxy]-2-methylimidazo[1,2-a]pyridin-3-yl}-5,5-dimethyl-4-(1H-pyrazol-4-yloxy)-5,7-dihydro-6H-pyrrolo[2,3-d]pyrimidin-6-one], the MEC in assay [1] came out at 1 µM. The same molecule gave a half-inhibitory concentration (IC50) in assay [2] of 1.5 nM.

For `Cc1nc2c(OCc3c(F)cccc3F)cccn2c1-c1nc(NCC(C)(N)C(F)(F)F)c2c(n1)NC(=O)C2(C)C` (racemic) [Example 40, rac-4-[(2-Amino-3,3,3-trifluoro-2-methylpropyl)amino]-2-{8-[(2,6-difluorobenzyl)oxy]-2-methylimidazo[1,2-a]pyridin-3-yl}-5,5-dimethyl-5,7-dihydro-6H-pyrrolo[2,3-d]pyrimidin-6-one], in assay [1], the MEC came out at 3 µM. The molecule further came in with an IC50 in assay [2] of 14 nM.

Turning to `Cc1nc2c(OCc3c(F)ccc(F)c3F)cccn2c1-c1nc2c(c(C(=O)N3CCN(C)CC3)n1)C(C)(C)C(=O)N2` [Example 60, 5,5-dimethyl-4-[(4-methylpiperazin-1-yl)carbonyl]-2-{2-methyl-8-[(2,3,6-trifluorobenzyl)oxy]imidazo[1,2-a]pyridin-3-yl}-5,7-dihydro-6H-pyrrolo[2,3-d]pyrimidin-6-one trifluoroacetate], the MEC in assay [1] amounted to 3 µM. Also, in assay [2], the IC50 is 420 nM.

Take `Cc1nc2c(OCc3c(F)cccc3F)cccn2c1-c1nc(NCCN2CCC(F)(F)C2)c2c(n1)NC(=O)C2(C)C` [Example 26, 2-{8-[(2,6-difluorobenzyl)oxy]-2-methylimidazo[1,2-a]pyridin-3-yl}-4-{[2-(3,3-difluoropyrrolidin-1-yl)ethyl]amino)-5,5-dimethyl-5,7-dihydro-6H-pyrrolo[2,3-d]pyrimidin-6-one]: the MEC in assay [1] came out at 3 µM. This molecule displayed an IC50 in assay [2] of 26 nM.

Consider `Cc1nc2c(OCc3c(F)cccc3F)cccn2c1-c1nc(I)c2c(n1)NC(=O)C2(C)C` [Example 2, 2-{8-[(2,6-Difluorobenzyl)oxy]-2-methylimidazo[1,2-a]pyridin-3-yl}-4-iodo-5,5-dimethyl-5,7-dihydro-6H-pyrrolo[2,3-d]pyrimidin-6-one], for which the MEC in assay [1] amounted to 5.3 µM. In assay [2], this molecule showed an IC50 of 300 nM.

Regarding `COCC(C)(N)CNc1nc(-c2c(C)nc3c(OCc4c(F)cccc4F)cccn23)nc2c1C(C)(C)C(=O)N2` (single isomer, unassigned; ent-4) [Example 45, ent-4-[(2-Amino-3-methoxy-2-methylpropyl)amino]-2-{8-[(2,6-difluorobenzyl)oxy]-2-methylimidazo[1,2-a]pyridin-3-yl}-5,5-dimethyl-5,7-dihydro-6H-pyrrolo[2,3-d]pyrimidin-6-one (Enantiomer A)], the MEC in assay [1] was 1 µM. This molecule also yielded an IC50 in assay [2] of 9.8 nM.

Turning to `Cc1nc2c(OCc3c(F)cccc3F)cccn2c1-c1nc(NC[C@@H](O)CO)c2c(n1)NC(=O)C2(C)C` [Example 23, 2-{8-[(2,6-difluorobenzyl)oxy]-2-methylimidazo[1,2-a]pyridin-3-yl}-4-{[(2R)-2,3-dihydroxypropyl]amino}-5,5-dimethyl-5,7-dihydro-6H-pyrrolo[2,3-d]pyrimidin-6-one], the MEC in assay [1] is 3 µM. This molecule registered an IC50 in assay [2] of 8 nM.

Turning to `Cc1nc2c(OCc3c(F)cccc3F)cccn2c1-c1nc2c(c(C(=O)NCC(C)(C)O)n1)C(C)(C)C(=O)N2` [Example 56, 2-{8-[(2,6-difluorobenzyl)oxy]-2-methylimidazo[1,2-a]pyridin-3-yl}-N-(2-hydroxy-2-methylpropyl)-5,5-dimethyl-6-oxo-6,7-dihydro-5H-pyrrolo[2,3-d]pyrimidine-4-carboxamide], the MEC in assay [1] stood at 0.3 µM. This molecule also gave an IC50 in assay [2] of 1.3 nM.

Regarding `Cc1nc2c(OCc3c(F)cccc3F)cccn2c1-c1nc(NCC(O)C(F)(F)F)c2c(n1)NC(=O)C2(C)C` (racemic) [Example 18, rac-2-{8-[(2,6-difluorobenzyl)oxy]-2-methylimidazo[1,2-a]pyridin-3-yl}-5,5-dimethyl-4-[(3,3,3-trifluoro-2-hydroxypropyl)amino]-5,7-dihydro-6H-pyrrolo[2,3-d]pyrimidin-6-one], the MEC in assay [1] was 1 µM. Besides, half-maximal inhibition in assay [2] (IC50) was put at 19 nM.
